Data published in patent US20250304563A1, “ACTIVATORS OF EFFECTOR T CELLS” (Orum Therapeutics, Inc., priority 2022, published 2025).
pIC50: −log10 of the molar value.

Legend:
[1] = biological target: Cbl-b (36-427 aa truncated form, N-terminus Avi-tag) (Homo sapiens (Human), UniProt Q13191); assay: Cbl-b binding: TR-FRET displacement of BODIPY-FL probe
Experimental: Compounds were assessed for binding activity to Cbl-b by their ability to compete with and displace a probe comprised of BODIPY-FL fluorophore conjugated to a Cbl-b inhibitor (see Example 54 in WO2020264398). In the assay, a 36-427 aa truncated form of Cbl-b with an N-terminus Avi-tag was incubated 20 mM HEPES pH 7.5, 150 mM NaCl, 0.01% Triton X-100, 0.1% BSA, 0.5 mM TCEP buffer with streptavidin-terbium (Cisbio). After one hour of incubation at room temperature, 1 uM each of fluorescent probe and compound were combined with the reaction mixture. Compounds with Cbl-b binding activity competitively displace the fluorophore tagged inhibitor thereby disrupting the FRET signal from the terbium-BODIPY-FL complex. The reaction mixtures were incubated for one additional hour at room temperature to allow for competition between inhibitor and candidate compounds to occur. The time resolved FRET (TR-FRET) signal was then read at 520/620 […] (excitation/emission) using a Spectramax M5e plate reader (Molecular Devices) to measure probe displacement. Compounds with Cbl-b binding activity had decreased FRET signal owing to disruption of the terbium-BODIPY-FL FRET complex. Standard methods in PRISM were used to calculate the compound IC50 values from the experimental data.

[2] = system: Human primary T cells; assay: T cell activation: secreted IL-2; format: cell-based; conditions: 48 hours, fold over background normalized to Compound 141A; for IL-2 1 nM: 1 nM compound; for IL-2 10 nM: 10 nM compound; for IL-2 100 nM: 100 nM compound
Experimental: (§1) Human primary T cells were isolated from commercially available frozen peripheral blood mononuclear cells (HemaCare Corporation) or from fresh LeukoPaks (Research Blood Components). T cells were isolated through depletion of non-T cells using negative selection kit according to the manufacturer's protocol (Miltenyi Biotec, Human Pan T Cell Isolation Kit, 130-096-535). Isolated cells were cultured overnight at 37° C. with 5% CO2 and plated at 1×10^5 cells per well in XVivo-15 serum-free media (Lonza, 04-418Q) into 96 well plates coated with anti-CD3 (OKT3) antibody (ThermoFisher, 16-0037-85). To coat the plates for T cell capture, anti-CD3 antibody was diluted in PBS at 10 μg/mL and 100 μl added to each well. Plates were incubated at 4° C. overnight or at 37° C. for 2 hours and washed once with PBS before use. Serial dilutions of each compound were added in duplicates to the T cells to assess their effect on T cell activation. T cells treated with 5 μg/mL of CD28 antibody (ThermoFisher, 16-0289-85) or T cells stimulated by CD3 only were used as a control. Plates were incubated with the Cbl-b inhibitors for 48 hours at 37° C. with 5% CO2, and supernatants were subsequently analyzed for levels of the activation induced secreted cytokines IL-2 or IFN-y (BD Biosciences CBA Flex Beads, 558269, 558270). T cells were additionally stained with anti-CD69 antibody (Invitrogen, 12-0699-42 which labels a T cell activation associated membrane protein to and surface expression was measured by flow cytometry (ThermoFisher Attune NxT).
(§2) To control for natural inter-donor variability in T cell responses intrinsic to using primary human donor derived cells, secreted IL-2 and IFN-y measurements for each test compound were reported as the fold increase of the compound treated levels over background (antiCD3/CD28 treatment only) normalized to the values obtained for Compound 141A. Results for compound treatment-induced changes in CD69 levels are similarly reported as the fold increase due to compound treatment over anti-CD3 stimulated background only, normalized to values obtained for Compound 141A.
Normalized T cell IL-2 responses were sorted into ranges as follows: fold over background values between 1.41 and 1.8: range “X”, between 0.80 and 1.40: range “A”, values between 0.31 and 0.79: range “B” values between 0.10 and 0.30: range “C”, values between 0.01 and 0.09: range “D.”

[3] = system: Human primary T cells; assay: T cell activation: secreted IFN-y; format: cell-based; conditions: 48 hours, fold over background normalized to Compound 141A; for IFN-y 1 nM: 1 nM compound; for IFN-y 10 nM: 10 nM compound; for IFN-y 100 nM: 100 nM compound
Experimental: as §1, §2
Normalized T cell IFN-y responses were sorted into ranges as follows: fold over background between 1.10 and 2.00: range “A”, values between 0.31 and 1.00: range “B;” values between 0.10 and 0.30: range “C”, and values between 0.01 and 0.09: range “D.”

[4] = system: Human primary T cells; assay: T cell activation: CD69 surface expression by flow cytometry; format: cell-based; conditions: fold over anti-CD3 stimulated background normalized to Compound 141A; for CD69 10 nM: 10 nM compound; for CD69 100 nM: 100 nM compound
Experimental: as §1, §2
Similarly, bins for normalized CD69 levels were sorted into ranges as follows: fold over background values between 1.11 and 1.6: range “X”, values between 0.81 and 1.10: range “A”; values between 0.61 and 0.80: range “B;” values between 0.30 and 0.60: range “C”.

Chain of Cbl-b (36-427 aa truncated form, N-terminus Avi-tag) (Q13191 36-427): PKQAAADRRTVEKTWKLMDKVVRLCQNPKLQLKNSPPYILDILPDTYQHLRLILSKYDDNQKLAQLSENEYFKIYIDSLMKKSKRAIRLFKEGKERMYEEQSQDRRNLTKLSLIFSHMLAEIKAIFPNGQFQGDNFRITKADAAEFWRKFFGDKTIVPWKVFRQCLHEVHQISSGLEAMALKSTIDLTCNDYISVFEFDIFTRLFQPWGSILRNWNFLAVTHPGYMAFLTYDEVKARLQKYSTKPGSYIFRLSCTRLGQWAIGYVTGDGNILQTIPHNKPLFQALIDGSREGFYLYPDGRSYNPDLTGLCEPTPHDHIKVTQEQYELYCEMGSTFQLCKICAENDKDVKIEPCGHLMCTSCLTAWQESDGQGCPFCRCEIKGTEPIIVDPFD

Row | Compound | pIC50 [1] | IL-2 1 nM [2] | IL-2 10 nM [2] | IL-2 100 nM [2] | IFN-y 1 nM [3] | IFN-y 10 nM [3] | IFN-y 100 nM [3] | CD69 10 nM [4] | CD69 100 nM [4]
1 | Cc1cn(CCNc2cc(C3(Cc4nncn4C)COC3)cc(N3Cc4c(cc(CN5CCC[C@H](C)C5)cc4C(F)(F)F)C3=O)n2)nn1 [Compound 129, (S)-2-(6-((2-(4-methyl-1H-1,2,3-triazol-1-yl)ethyl)amino)-4-(3-((4-methyl-4H-1,2,4-triazol-3-yl)methyl)oxetan-3-yl)pyridin-2-yl)-6-((3-methylpiperidin-1-yl)methyl)-4-(trifluoromethyl)isoindolin-1-one] | 7.00 to 7.70 |  |  |  |  |  |  |  | 
2 | CCNc1cc([C@]2(c3nncn3C)C[C@@H](C)C2)nc(N2Cc3c(cc(CN4CCC[C@H](C)C4)cc3C(F)(F)F)C2=O)n1 [Compound 114A, 2-[4-(ethylamino)-6-[(1s,3R)-3-methyl-1-(4-methyl-1,2,4-triazol-3-yl)cyclobutyl]pyrimidin-2-yl]-6-{[(3S)-3-methylpiperidin-1-yl]methyl}-4-(trifluoromethyl)-3H-isoindol-1-one] | 6.00 to 7.00 |  |  |  |  |  |  |  | 
3 | CCSc1cc(C2(Cc3nncn3C)COC2)cc(N2Cc3c(C#N)cc(CN4CCC[C@H](C)C4)cc3C2=O)n1 [Compound 144, 2-[6-(ethylsulfanyl)-4-{3-[(4-methyl-1,2,4-triazol-3-yl)methyl]oxetan-3-yl}pyridin-2-yl]-6-{[(3S)-3-methylpiperidin-1-yl]methyl}-1-oxo-3H-isoindole-4-carbonitrile; trifluoroacetic acid] | 7.70 to 8.30 |  |  |  |  |  |  |  | 
4 | CCNc1cc(C2(c3nncn3C)CC(C)C2)cc(N2Cc3c(cc(CN4CCC[C@H](C)C4)cc3[S+](C)[O-])C2=O)n1 (stereo partly drawn) [Compound 178, 2-[6-(ethylamino)-4-[(1r,3s)-3-methyl-1-(4-methyl-1,2,4-triazol-3-yl)cyclobutyl]pyridin-2-yl]-4-methanesulfinyl-6-{[(3S)-3-methylpiperidin-1-yl]methyl}-3H-isoindol-1-one] | 6.00 to 7.00 |  |  |  |  |  |  |  | 
5 | C=CCS(=O)(=O)N1CCN(c2cc(C3(Cc4nncn4C)COC3)cc(N3Cc4c(cc(CN5CCC[C@H](C)C5)cc4C(F)(F)F)C3=O)n2)CC1 [Compound 133, (S)-2-(6-(4-(allylsulfonyl)piperazin-1-yl)-4-(3-((4-methyl-4H-1,2,4-triazol-3-yl)methyl)oxetan-3-yl)pyridin-2-yl)-6-((3-methylpiperidin-1-yl)methyl)-4-(trifluoromethyl)isoindolin-1-one] | 7.70 to 8.30 |  |  |  |  |  |  |  | 
6 | CCNc1cc(C2(Cc3nncn3C)COC2)cc(N2Cc3c(cc(CN4CCC[C@H](C)C4)cc3C(F)(F)F)C2=O)n1 [Compound 147] |  | B (values between 0.31 and 0.79: range “B”) | B (values between 0.31 and 0.79: range “B”) | A (between 0.80 and 1.40: range “A”) | B (values between 0.31 and 1.00: range “B;”) | A (fold over background between 1.10 and 2.00: range “A”) | A (fold over background between 1.10 and 2.00: range “A”) | A (values between 0.81 and 1.10: range “A”) | A (values between 0.81 and 1.10: range “A”)
7 | CN1CCOC2(CCN(Cc3cc4c(c(C(F)(F)F)c3)CN(c3cc(C5(Cc6nncn6C)COC5)cc(NCCC#N)n3)C4=O)C2)C1 (centres unmarked) [Compound 163, 3-[(4-{3-[(4-methyl-1,2,4-triazol-3-yl)methyl]oxetan-3-yl}-6-[6-({9-methyl-6-oxa-2,9-diazaspiro[4.5]decan-2-yl}methyl)-1-oxo-4-(trifluoromethyl)-3H-isoindol-2-yl]pyridin-2-yl)amino]propanenitrile] | 7.70 to 8.30 |  |  |  |  |  |  |  | 
8 | C#CCOCC(c1cc2c(c(C(F)(F)F)c1)CN(c1cccc(C3(c4nncn4C)CC(C)C3)c1)C2=O)N1CCC[C@H](C)C1 (stereo partly drawn) [Compound 151, 6-{1-[(3S)-3-methylpiperidin-1-yl]-2-(prop-2-yn-1-yloxy)ethyl}-2-{3-[(1r,3s)-3-methyl-1-(4-methyl-1,2,4-triazol-3-yl)cyclobutyl]phenyl}-4-(trifluoromethyl)-3H-isoindol-1-one] | 6.00 to 7.00 |  |  |  |  |  |  |  | 
9 | (3S)-1-[6-(2,5-dioxopyrrol-1-yl)hexyl]-1-({2-[6-(ethylsulfanyl)-4-{3-[(4-methyl-1,2,4-triazol-3-yl)methyl]oxetan-3-yl}pyridin-2-yl]-3-oxo-7-(trifluoromethyl)-1H-isoindol-5-yl}methyl)-3-methylpiperidin-1-ium [Compound 209] |  | C (values between 0.10 and 0.30: range “C”) | C (values between 0.10 and 0.30: range “C”) | B (values between 0.31 and 0.79: range “B”) | C (values between 0.10 and 0.30: range “C”) | C (values between 0.10 and 0.30: range “C”) | B (values between 0.31 and 1.00: range “B;”) | C (values between 0.30 and 0.60: range “C”) | B (values between 0.61 and 0.80: range “B;”)
10 | C[C@H]1CCCN(Cc2cc3c(c(C(F)(F)F)c2)CN(c2cc(C4(Cc5nncn5C)COC4)cc(OCCO)n2)C3=O)C1 [Compound 100, 2-[6-(2-hydroxyethoxy)-4-{3-[(4-methyl-1,2,4-triazol-3-yl)methyl]oxetan-3-yl}pyridin-2-yl]-6-{[(3S)-3-methylpiperidin-1-yl]methyl}-4-(trifluoromethyl)-3H-isoindol-1-one] |  | C (values between 0.10 and 0.30: range “C”) | B (values between 0.31 and 0.79: range “B”) | B (values between 0.31 and 0.79: range “B”) | C (values between 0.10 and 0.30: range “C”) | B (values between 0.31 and 1.00: range “B;”) | B (values between 0.31 and 1.00: range “B;”) | C (values between 0.30 and 0.60: range “C”) | A (values between 0.81 and 1.10: range “A”)
11 | CCOc1cc(C2(Cc3nncn3C)COC2)cc(N2Cc3c(cc(CN4CCC[C@H](C)C4)cc3C(F)(F)F)C2=O)n1 [Compound 146] |  | B (values between 0.31 and 0.79: range “B”) | B (values between 0.31 and 0.79: range “B”) | A (between 0.80 and 1.40: range “A”) | B (values between 0.31 and 1.00: range “B;”) | A (fold over background between 1.10 and 2.00: range “A”) | A (fold over background between 1.10 and 2.00: range “A”) | A (values between 0.81 and 1.10: range “A”) | A (values between 0.81 and 1.10: range “A”)
12 | C[C@H]1CCCN(Cc2cc3c(c(C(F)(F)F)c2)CN(c2cccc([C@]4(c5nncn5C)C[C@@H](C)C4)c2)C3=O)C1 [Compound 148] |  | B (values between 0.31 and 0.79: range “B”) | A (between 0.80 and 1.40: range “A”) | A (between 0.80 and 1.40: range “A”) | B (values between 0.31 and 1.00: range “B;”) | A (fold over background between 1.10 and 2.00: range “A”) | A (fold over background between 1.10 and 2.00: range “A”) | A (values between 0.81 and 1.10: range “A”) | A (values between 0.81 and 1.10: range “A”)
